Reference: ChEMBL document CHEMBL1136565, “5-Azidoepibatidine: an exceptionally potent photoaffinity ligand for neuronal alpha 4 beta 2 and alpha 7 nicotinic acetylcholine receptors” (Bioorg Med Chem Lett, 2003)

Tests used:
[1] = target: Neuronal acetylcholine receptor subunit alpha-7 (Homo sapiens, UniProt P36544); assay: Binding affinity to alpha-7 receptor subtype from human neuroblastoma SH-SY5Y cells was measured using [125I]-alpha-bungarotoxin as radioligand; type: cell-based
[2] = Binding affinity to Drosophila nicotinic receptor was measured using [3H]imidacloprid as radioligand; parameters: species or system Drosophila melanogaster
[3] = target: Neuronal acetylcholine receptor; alpha4/beta2 (Homo sapiens, UniProt P17787+P43681); assay: Binding affinity to alpha4 beta-2 receptor subtype from mouse fibroblast M10 cells was measured using [3 H]nicotine; type: cell-based
Sequence of Neuronal acetylcholine receptor; alpha4/beta2 (P17787 whole entry): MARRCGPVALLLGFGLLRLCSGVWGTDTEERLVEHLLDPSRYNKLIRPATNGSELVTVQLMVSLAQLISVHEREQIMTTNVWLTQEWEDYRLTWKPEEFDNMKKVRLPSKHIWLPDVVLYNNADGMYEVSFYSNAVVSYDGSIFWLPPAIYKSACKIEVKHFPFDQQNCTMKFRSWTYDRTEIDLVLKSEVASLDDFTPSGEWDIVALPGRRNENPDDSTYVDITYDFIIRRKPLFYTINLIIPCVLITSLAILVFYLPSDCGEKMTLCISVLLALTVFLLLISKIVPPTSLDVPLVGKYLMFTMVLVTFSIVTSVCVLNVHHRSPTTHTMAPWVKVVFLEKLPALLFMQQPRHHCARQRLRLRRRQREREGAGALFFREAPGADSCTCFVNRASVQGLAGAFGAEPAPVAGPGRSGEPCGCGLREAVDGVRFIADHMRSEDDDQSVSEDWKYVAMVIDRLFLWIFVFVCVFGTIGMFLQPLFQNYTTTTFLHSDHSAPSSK
Sequence of Neuronal acetylcholine receptor; alpha4/beta2 (P43681 whole entry): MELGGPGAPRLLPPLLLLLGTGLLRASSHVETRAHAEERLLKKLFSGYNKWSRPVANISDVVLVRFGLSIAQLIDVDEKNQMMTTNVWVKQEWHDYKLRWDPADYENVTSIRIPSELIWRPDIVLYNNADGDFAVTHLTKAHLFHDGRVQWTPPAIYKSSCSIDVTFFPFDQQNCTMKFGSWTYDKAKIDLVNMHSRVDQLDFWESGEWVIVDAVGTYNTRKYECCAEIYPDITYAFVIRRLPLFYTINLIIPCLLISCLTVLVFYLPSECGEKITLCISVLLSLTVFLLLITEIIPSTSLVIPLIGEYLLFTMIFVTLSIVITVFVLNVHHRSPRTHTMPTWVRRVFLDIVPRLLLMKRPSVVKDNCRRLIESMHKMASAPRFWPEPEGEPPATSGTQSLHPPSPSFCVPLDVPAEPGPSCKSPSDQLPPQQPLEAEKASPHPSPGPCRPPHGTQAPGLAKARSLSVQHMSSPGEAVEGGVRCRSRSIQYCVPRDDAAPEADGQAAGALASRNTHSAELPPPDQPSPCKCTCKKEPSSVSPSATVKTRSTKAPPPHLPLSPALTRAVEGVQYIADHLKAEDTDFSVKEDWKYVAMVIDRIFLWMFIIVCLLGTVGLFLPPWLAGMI

Sequence of Neuronal acetylcholine receptor subunit alpha-7 (P36544 whole entry): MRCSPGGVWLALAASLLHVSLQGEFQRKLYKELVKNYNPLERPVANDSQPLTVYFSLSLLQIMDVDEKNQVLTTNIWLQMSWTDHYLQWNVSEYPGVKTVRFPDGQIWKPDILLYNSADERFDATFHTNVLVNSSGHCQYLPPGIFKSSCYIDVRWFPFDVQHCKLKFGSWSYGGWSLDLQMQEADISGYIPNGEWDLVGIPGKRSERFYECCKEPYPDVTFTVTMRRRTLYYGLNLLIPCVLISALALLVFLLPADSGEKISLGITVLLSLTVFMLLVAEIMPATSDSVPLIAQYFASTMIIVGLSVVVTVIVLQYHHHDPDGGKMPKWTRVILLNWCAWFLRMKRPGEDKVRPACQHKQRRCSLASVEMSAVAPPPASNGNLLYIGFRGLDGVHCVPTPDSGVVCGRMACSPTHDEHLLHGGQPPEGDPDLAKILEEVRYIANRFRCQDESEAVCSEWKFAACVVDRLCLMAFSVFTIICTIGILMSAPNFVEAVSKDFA

## Clc1ccc(C2CC3CCC2N3)cn1 (stereo not given) [EPIBATIDINE]
[1]
  Ki: 10.2 nM
[2]
  Ki: 200 nM

## [N-]=[N+]=Nc1cc(C2CC3CCC2N3)cnc1Cl (stereo not given) [AZIDOEPIBATIDINE]
[1]
  Ki: 9.7 nM
[2]
  Ki: 2100 nM
[3]
  Ki: 0.027 nM
